Experimental data from ChEMBL document CHEMBL1201862, “PubChem BioAssay data set” (2004).
Activity calls are given as the source filed them.

Assays:
[1] = reduced cellular PGC1a acetyl-lysine signal – cell-based, cherry-picked samples, dose response (AID 720514); assay type: functional;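 further: potency may reflect raised or lowered acetylation signal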
[2] = target: NAD-dependent protein deacylase sirtuin-5, mitochondrial (Homo sapiens, UniProt Q9NXA8); test: sirtuin-5 deacylation blockers, concentration series – biochemical, fluorescence imaging, cherry-pick, set 5, dose response (AID 720591);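 further: desuccinylation of succinyl peptide AMC substrate read as fluorescence after trypsin release; potency of inhibitors that lower fluorescence and may act on trypsin instead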
NAD-dependent protein deacylase sirtuin-5, mitochondrial, sequence (Q9NXA8 whole entry): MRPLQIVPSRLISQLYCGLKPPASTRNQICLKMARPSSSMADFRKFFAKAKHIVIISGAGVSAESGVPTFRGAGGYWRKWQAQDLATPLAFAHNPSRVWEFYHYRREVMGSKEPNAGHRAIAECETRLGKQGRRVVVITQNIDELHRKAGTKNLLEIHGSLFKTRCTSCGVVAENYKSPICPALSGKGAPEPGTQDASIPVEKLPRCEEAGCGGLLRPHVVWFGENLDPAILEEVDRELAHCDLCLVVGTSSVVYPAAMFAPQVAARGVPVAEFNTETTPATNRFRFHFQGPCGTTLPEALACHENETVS

H9c2 = test: cells; assay type: functional, cell-based; settings: Rattus norvegicus, H9c2, Myocardium;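 further: confirmatory concentration-response retest of ultra-high-throughput screening hits for modulation of myocardial damage; cell death induced by hydrogen peroxide oxidative stress; compound pretreatment for 60 min then peroxide exposure for 2 h; potency is for protecting the cells against peroxide damage rather than for killing them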
HeLa = test: viability loss in HeLa cells – cell-based, ATP luminescence, cherry-pick samples, cytotoxicity control, dose response (AID 687004); assay type: functional; settings: Homo sapiens
[3] = viability loss in HEK293 cells – cell-based, plate reader, cherry-picked samples, cytotoxicity control, dose response (AID 743446); assay type: functional
[4] = blockers of bursicon-stimulated LGR2 cAMP reporter – cell-based, HEK293, CRE-luciferase reporter, cherry pick, set 2, dose response (AID 743343); assay type: functional;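 further: transfected cells were stimulated with diluted bursicon conditioned medium after compound addition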
[5] = A549 cell cytotoxicity, dose response, cytotoxicity control, plate reader, cherry-pick, antagonist series (AID 743412); assay type: functional, cell-based
[6] = general cell-killing toxicity readout – plate reader, dry powder samples, cytotoxicity control for PAX8 inhibitor project, dose response (AID 743021); assay type: functional, cell-based
Paired box protein Pax-8 = Paired box protein Pax-8 (Homo sapiens, UniProt Q06710); test: PAX8 transcriptional activity inhibition in RMG-I – RMG-I cells, luciferase, cherry-pick, dose response (AID 687027); assay type: functional, cell-based;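 further: luciferase reporter driven by Pax8 target thyroperoxidase promoter measured by SteadyGlo luminescence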
Paired box protein Pax-8, sequence (Q06710 whole entry): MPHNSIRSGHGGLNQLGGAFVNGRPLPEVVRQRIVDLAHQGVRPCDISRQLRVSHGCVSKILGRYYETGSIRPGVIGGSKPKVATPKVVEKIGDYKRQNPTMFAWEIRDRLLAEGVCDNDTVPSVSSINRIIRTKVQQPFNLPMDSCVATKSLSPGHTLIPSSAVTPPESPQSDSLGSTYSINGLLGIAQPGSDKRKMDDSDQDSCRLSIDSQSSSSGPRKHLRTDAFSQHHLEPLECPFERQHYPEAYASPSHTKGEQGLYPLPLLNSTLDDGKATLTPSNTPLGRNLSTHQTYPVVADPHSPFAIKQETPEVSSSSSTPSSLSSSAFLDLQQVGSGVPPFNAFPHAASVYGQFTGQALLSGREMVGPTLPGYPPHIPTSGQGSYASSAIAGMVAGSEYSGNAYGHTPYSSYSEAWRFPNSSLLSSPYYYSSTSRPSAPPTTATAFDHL

[7] = toxicity toward HepG2 liver cells – cell-based, plate reader, cherry-pick, antagonist series, cytotoxicity control, dose response (AID 743416); assay type: functional
[8] = blockade of melanocortin 4 receptor signaling – cell-based, plate reader, cherry pick, counter-screen for LGR2 antagonist project, dose response (AID 743444); assay type: functional;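 further: transfected HEK 293 cells stimulated with alpha-MSH peptide; potency of inhibitors of the alpha-MSH evoked signal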
Protein RecA = target: T1, Protein RecA (Mycobacterium tuberculosis, UniProt P9WHJ3); test: Fluorescence Cell-Free Homogeneous Dose Retest to Identify Inhibitors of RecA-Intein Splicing Activity. [Related pubchem assays (depositor defined):AID2097, AID2223, AID489010, AID492950]; assay type: functional
T1 sequence (P9WHJ3 whole entry): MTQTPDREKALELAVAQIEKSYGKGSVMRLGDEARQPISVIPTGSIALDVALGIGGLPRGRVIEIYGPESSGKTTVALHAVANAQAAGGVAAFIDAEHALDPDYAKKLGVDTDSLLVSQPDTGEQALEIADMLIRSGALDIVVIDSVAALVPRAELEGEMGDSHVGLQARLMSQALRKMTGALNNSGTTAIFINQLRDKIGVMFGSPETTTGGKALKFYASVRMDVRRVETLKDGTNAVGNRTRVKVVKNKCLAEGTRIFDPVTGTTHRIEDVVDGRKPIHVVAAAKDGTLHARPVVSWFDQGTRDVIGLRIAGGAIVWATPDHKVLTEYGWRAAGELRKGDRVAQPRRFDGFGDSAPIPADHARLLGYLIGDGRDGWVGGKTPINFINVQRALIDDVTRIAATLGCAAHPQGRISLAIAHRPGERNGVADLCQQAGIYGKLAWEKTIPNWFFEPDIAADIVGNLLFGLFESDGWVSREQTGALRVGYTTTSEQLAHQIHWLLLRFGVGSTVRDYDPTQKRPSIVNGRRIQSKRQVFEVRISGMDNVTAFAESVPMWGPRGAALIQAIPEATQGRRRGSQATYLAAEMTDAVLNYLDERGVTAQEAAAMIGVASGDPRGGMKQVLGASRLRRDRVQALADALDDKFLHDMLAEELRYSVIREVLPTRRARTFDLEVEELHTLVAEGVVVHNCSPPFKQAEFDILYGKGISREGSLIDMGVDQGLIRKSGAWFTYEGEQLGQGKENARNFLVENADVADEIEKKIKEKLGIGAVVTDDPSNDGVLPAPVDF

fMet-Leu-Phe receptor = fMet-Leu-Phe receptor (Homo sapiens, UniProt P21462); test: formyl peptide receptor binders – dose response (AID 519); assay type: functional
fMet-Leu-Phe receptor, sequence (P21462 whole entry): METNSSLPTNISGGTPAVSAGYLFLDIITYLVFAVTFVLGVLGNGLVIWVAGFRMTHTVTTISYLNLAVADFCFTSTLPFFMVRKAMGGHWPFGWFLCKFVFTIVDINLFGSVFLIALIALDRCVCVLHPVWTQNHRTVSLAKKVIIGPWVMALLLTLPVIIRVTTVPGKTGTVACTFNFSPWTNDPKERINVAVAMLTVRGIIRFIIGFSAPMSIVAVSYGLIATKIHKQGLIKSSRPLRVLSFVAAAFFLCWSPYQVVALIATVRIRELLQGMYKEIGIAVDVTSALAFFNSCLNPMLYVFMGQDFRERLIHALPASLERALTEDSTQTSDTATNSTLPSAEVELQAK

[9] = target: T2, Replicative DNA helicase DnaB (Mycobacterium tuberculosis, UniProt P9WMR3); test: DnaB intein splicing inhibitors, dose response, biochemical, cell-free fluorescence (AID 449749); assay type: functional
T2 sequence (P9WMR3 whole entry): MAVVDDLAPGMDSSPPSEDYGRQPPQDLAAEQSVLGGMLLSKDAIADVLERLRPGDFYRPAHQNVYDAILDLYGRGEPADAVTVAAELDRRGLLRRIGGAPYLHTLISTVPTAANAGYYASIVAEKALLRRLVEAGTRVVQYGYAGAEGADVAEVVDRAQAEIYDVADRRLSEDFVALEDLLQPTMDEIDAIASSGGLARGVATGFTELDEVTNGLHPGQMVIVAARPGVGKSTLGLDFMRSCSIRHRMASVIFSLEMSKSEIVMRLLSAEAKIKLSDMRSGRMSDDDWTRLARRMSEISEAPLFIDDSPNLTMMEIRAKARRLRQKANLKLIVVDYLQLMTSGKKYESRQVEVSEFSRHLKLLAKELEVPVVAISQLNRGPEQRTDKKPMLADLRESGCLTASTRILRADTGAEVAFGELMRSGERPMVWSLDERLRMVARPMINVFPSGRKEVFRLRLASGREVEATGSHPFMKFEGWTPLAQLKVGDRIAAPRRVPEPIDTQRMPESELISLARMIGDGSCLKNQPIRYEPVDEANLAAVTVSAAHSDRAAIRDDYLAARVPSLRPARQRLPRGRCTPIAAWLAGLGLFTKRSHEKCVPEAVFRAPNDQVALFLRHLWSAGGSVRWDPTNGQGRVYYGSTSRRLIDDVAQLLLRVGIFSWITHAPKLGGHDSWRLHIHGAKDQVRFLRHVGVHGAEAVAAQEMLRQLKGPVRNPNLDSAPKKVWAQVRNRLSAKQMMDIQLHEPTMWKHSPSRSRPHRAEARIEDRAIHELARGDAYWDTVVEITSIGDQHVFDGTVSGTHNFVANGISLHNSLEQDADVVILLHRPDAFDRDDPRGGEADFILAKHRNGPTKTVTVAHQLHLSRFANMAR

For `O=C(Nc1cc(S(=O)(=O)N2CCOCC2)ccc1Cl)c1cc([N+](=O)[O-])ccc1Cl`, the AC50 [1] was 13 µM (active).
In the case of `O=C(Cc1cccc(NC(=O)C2CCCN(C(=O)C3CCCC3)C2)c1)Nc1cccc(C(=O)N2CCOCC2)c1` (stereo not given), the AC50 [2] is reported as > 30 µM (inactive).
For `CS(=O)(=O)c1ccc(-c2cnc3c(NC=O)cc(-c4ccsc4)cn23)cc1`, the IC50 (H9c2) was 4.99 µM (active) and the AC50 (HeLa) was > 52 µM (inactive).
With `Oc1nc2ccccc2n1C1CCN(C(c2cc3ccccc3o2)c2nnnn2-c2ccc3c(c2)OCCO3)CC1` (stereo not given) the AC50 [3] was 15.5 µM (active), the AC50 [4] was 11.6 µM (active) and the AC50 [5] was 12.6 µM (active). For the same molecule, the AC50 [6] was 24.3 µM (active), the AC50 (Paired box protein Pax-8) was 5.8 µM (active) and the AC50 [7] was 39.1 µM (active). The AC50 [8] was 8.87 µM (active).
With `COc1cc(-n2nc(C)c3c2OC(N)=C(C#N)C3c2ccccc2)c(Cl)c(Br)c1O` (stereo not given) the EC50 (Protein RecA) was 3.47 µM (active), the Ki (fMet-Leu-Phe receptor) was 32.5 µM (inactive) and the AC50 [9] was 15.6 µM (active).
In the case of `CC1(C)S[C@@H]2[C@H](NC(=O)Cc3ccccc3)C(=O)N2[C@H]1C(=O)O` [PENICILLIN G POTASSIUM], the Ki (fMet-Leu-Phe receptor) is reported as 7.8 µM (active).
